Tests used:
[1] = tested on: normal NK cells expanded with K562-aAPC; assay: percent inhibition of viability; higher = more inhibition; settings: 72 h, IL-2 2.5 ng/mL
Description: (§1)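 Drug sensitivity and resistance testing on K562-aAPC-expanded normal NK cells: 5 concentrations (10-fold steps over a 10,000-fold range), 72 h at 37 °C, viability by CellTiter-Glo normalised to DMSO and benzethonium chloride controls; DSS from the fitted curve.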

[2] = tested on: DERL-7 (IL-2 2.5 ng/mL); assay: as above; settings: 72 h
[3] = tested on: IMC-1 (IL-2 20 ng/mL); assay: as above; settings: 72 h
[4] = tested on: KAI3 (IL-2 2.5 ng/mL); assay: as above; settings: 72 h
[5] = tested on: KHYG-1 (IL-2 2.5 ng/mL); assay: as above; settings: 72 h
[6] = tested on: NK-92 (IL-2 2.5 ng/mL); assay: as above; settings: 72 h
[7] = tested on: NK-YS (IL-2 2.5 ng/mL); assay: as above; settings: 72 h
[8] = tested on: NKL (IL-2 2.5 ng/mL); assay: as above; settings: 72 h
[9] = tested on: SNK-6 (IL-2 2.5 ng/mL); assay: as above; settings: 72 h
[10] = tested on: YT (IL-2 2.5 ng/mL); assay: as above; settings: 72 h
[11] = tested on: normal primary NK cells, pool 1 (3 donors) (IL-2 2.5 ng/mL); assay: as above; settings: 72 h
[12] = tested on: normal primary NK cells, pool 1 (3 donors), resting (IL-2 0 ng/mL); assay: as above; settings: 72 h
[13] = tested on: normal primary NK cells, pool 2 (3 donors) (IL-2 2.5 ng/mL); assay: as above; settings: 72 h
[14] = tested on: normal primary NK cells, pool 3 (3 donors) (IL-2 2.5 ng/mL); assay: as above; settings: 72 h
[15] = tested on: normal NK cells expanded with K562-aAPC; assay: drug sensitivity score (DSS) (DSS units); higher = more sensitive; extreme values may be limits of the assay; settings: 72 h; IL-2 2.5 ng/mL
Description: as §1

[16] = tested on: DERL-7 (IL-2 2.5 ng/mL); assay: as above; settings: 72 h
[17] = tested on: IMC-1 (IL-2 20 ng/mL); assay: as above; settings: 72 h
[18] = tested on: KAI3 (IL-2 2.5 ng/mL); assay: as above; settings: 72 h
[19] = tested on: KHYG-1 (IL-2 2.5 ng/mL); assay: as above; settings: 72 h
[20] = tested on: NK-92 (IL-2 2.5 ng/mL); assay: as above; settings: 72 h
[21] = tested on: NK-YS (IL-2 2.5 ng/mL); assay: as above; settings: 72 h
[22] = tested on: NKL (IL-2 2.5 ng/mL); assay: as above; settings: 72 h
[23] = tested on: SNK-6 (IL-2 2.5 ng/mL); assay: as above; settings: 72 h
[24] = tested on: YT (IL-2 2.5 ng/mL); assay: as above; settings: 72 h
[25] = tested on: normal primary NK cells, pool 1 (3 donors) (IL-2 2.5 ng/mL); assay: as above; settings: 72 h
[26] = tested on: normal primary NK cells, pool 1 (3 donors), resting (IL-2 0 ng/mL); assay: as above; settings: 72 h
[27] = tested on: normal primary NK cells, pool 2 (3 donors) (IL-2 2.5 ng/mL); assay: as above; settings: 72 h
[28] = tested on: normal primary NK cells, pool 3 (3 donors) (IL-2 2.5 ng/mL); assay: as above; settings: 72 h

C[C@@H](Nc1cc(F)cc(F)c1)c1cc(C(=O)N(C)C)cc2c(=O)cc(N3CCOCC3)oc12 [AZD-8186] (max concentration tested 1000 nM)
percent inhibition of viability [%]
Settings | 0.1 nM | 1 nM | 10 nM | 100 nM | 1000 nM
[1] | -7 | -2.1 | -0.27 | 1.82 | 6.33
[2] | -0.61 | -0.52 | 0.73 | 12.4 | 17.2
[3] | -4.26 | -2.05 | -9.6 | -12.9 | -13.3
[4] | -2.99 | 1.77 | 1.66 | 8.81 | 5.34
[5] | -0.98 | -2.42 | -2.86 | 0.88 | -3.51
[6] | -5.14 | -3.4 | -6.34 | 7.87 | 29.8
[7] | -5.07 | -6.92 | -2.82 | -2.72 | 4.56
[8] | -15.3 | -13.8 | -5.07 | -8.33 | -6.27
[9] | 10 | 11.1 | -10.9 | -9.3 | -17.3
[10] | -0.09 | -4.44 | -2.79 | 1.47 | 3.03
[11] | -5.02 | -7 | 5.11 | 5.09 | 16.9
[12] | 3.9 | -3.52 | 11.1 | 13.5 | 24.3
[13] | -10.7 | -2.64 | -11.3 | -1.73 | 4.08
[14] | -6.84 | -3.88 | -7.48 | -5.25 | -2.65

Settings | drug sensitivity score
[15] | 0
[16] | 1.36
[17] | 0
[18] | 0
[19] | 0
[20] | 2.45
[21] | 0
[22] | 0
[23] | 0
[24] | 0
[25] | 0.51
[26] | 2.41
[27] | 0
[28] | 0

CCN1CCN(Cc2ccc(Nc3ncc(F)c(-c4cc(F)c5nc(C)n(C(C)C)c5c4)n3)nc2)CC1 [Abemaciclib] (max concentration tested 2500 nM)
percent inhibition of viability [%]
Settings | 0.25 nM | 2.5 nM | 25 nM | 250 nM | 2500 nM
[1] | 2.02 | -3.3 | 4.81 | 17.7 | 41.3
[2] | -4.64 | -2.09 | 8.58 | 51.3 | 73.9
[3] | 1.3 | -5.47 | -5.79 | -18.8 | 97.5
[4] | -4.55 | -3.34 | -6.9 | -4.76 | 11.8
[5] | -1.33 | -1.51 | -0.04 | 42.8 | 79.8
[6] | -9.23 | 0.87 | -2.31 | 7.25 | 42
[7] | -3.7 | -3.12 | 0.09 | 18 | 95
[8] | -11.9 | -8.91 | -19.3 | -11.8 | 38
[9] | 22.8 | 13.2 | 4.72 | 15.4 | 29.8
[10] | -0.11 | 3.29 | -1.68 | 5.51 | 7.94
[11] | -4.8 | -6.62 | -2.33 | 9.08 | 24.4
[12] | -12.7 | -5.25 | -10.3 | -47.3 | -83.7
[13] | -7.88 | -7.14 | 0.77 | 1.36 | 50.7
[14] | -10.9 | -4.53 | -8.73 | -3.71 | 11.1

Settings | drug sensitivity score
[15] | 3.89
[16] | 10.8
[17] | 4.41
[18] | 0.01
[19] | 9.69
[20] | 3.33
[21] | 8.19
[22] | 1.33
[23] | 0.14
[24] | 0
[25] | 2.05
[26] | 0.89
[27] | 2.85
[28] | 0

CCc1cc2c(cc1N1CCC(N3CCOCC3)CC1)C(C)(C)c1[nH]c3cc(C#N)ccc3c1C2=O [Alectinib] (max concentration tested 1000 nM)
percent inhibition of viability [%]
Settings | 0.1 nM | 1 nM | 10 nM | 100 nM | 1000 nM
[1] | 0.14 | -2.95 | -2.33 | -2.36 | 4.52
[2] | -1.51 | -2.79 | -1.59 | -8.82 | 13
[3] | -2.94 | 1.06 | -2.15 | -2.79 | -0.64
[4] | -3.74 | 3.89 | 3.63 | 1.36 | -4
[5] | -3.94 | 0.6 | -1.88 | 10.3 | 14.5
[6] | -7.49 | -8.89 | -12 | 9.46 | 24.4
[7] | -5.67 | -3.61 | -7.75 | 6.14 | 18.4
[8] | -9 | -7.92 | -11.6 | -10.4 | 20.1
[9] | -2.43 | -0.7 | -18.9 | -29 | -2.44
[10] | -3.8 | -4.08 | -6.26 | 0.11 | 2.48
[11] | -1.7 | -9.82 | -10.4 | -1.45 | 0.6
[12] | -6.37 | -4.08 | -8.77 | 1.83 | 12.5
[13] | -3.03 | -7.68 | -3.35 | -8.46 | 3.39
[14] | -8.17 | -9.65 | -5.32 | -8.21 | -0.39

Settings | drug sensitivity score
[15] | 0
[16] | 0.02
[17] | 0
[18] | 0
[19] | 0.86
[20] | 2.08
[21] | 1.14
[22] | 0.33
[23] | 0
[24] | 0
[25] | 0
[26] | 0.17
[27] | 0
[28] | 0

Source: the supplement of paper PMC5908809
